Tests used:
[1] = system: MCF7; experiment: Anticancer activity against human MCF7 cells assessed as cell growth inhibition measured after 48 hrs by MTT assay; assay type: functional, cell-based; settings: MCF7, 48 h
[2] = system: A549; experiment: Anticancer activity against human A549 cells assessed as cell growth inhibition measured after 48 hrs by MTT assay; assay type: functional, cell-based; settings: A549, 48 h
[3] = system: HCT-116; experiment: Anticancer activity against human HCT-116 cells assessed as cell growth inhibition measured after 48 hrs by MTT assay; assay type: functional, cell-based; settings: HCT-116, 48 h
[4] = system: HepG2; experiment: Anticancer activity against human HepG2 cells assessed as cell growth inhibition measured after 48 hrs by MTT assay; assay type: functional, cell-based; settings: HepG2, 48 h
[5] = system: PC-3; experiment: Anticancer activity against human PC-3 cells assessed as cell growth inhibition measured after 48 hrs by MTT assay; assay type: functional, cell-based; settings: PC-3, 48 h
[6] = system: MCF7; experiment: Anticancer activity against human MCF7 cells assessed as cell growth inhibition at 100 uM by MTT assay relative to control; assay type: functional
[7] = system: A549; experiment: Anticancer activity against human A549 cells assessed as cell growth inhibition at 100 uM by MTT assay relative to control; assay type: functional
[8] = system: HepG2; experiment: Anticancer activity against human HepG2 cells assessed as cell growth inhibition at 100 uM by MTT assay relative to control; assay type: functional
[9] = system: A-431; experiment: Anticancer activity against human A-431 cells assessed as cell growth inhibition at 100 uM by MTT assay relative to control; assay type: functional
[10] = system: FaDu; experiment: Anticancer activity against human FaDu cells assessed as cell growth inhibition measured after 48 hrs; assay type: functional, cell-based

For `NC(=O)[C@H]1CCCN1CC(=O)Nc1cc2ccccc2oc1=O`, the IC50 [1] was 0.355 µM and the IC50 [2] was 0.024 µM.
Compound `O=C(/C=C/c1ccco1)[C@H]1[C@H](c2ccco2)[C@H]2CSCN2[C@]12C(=O)Nc1ccccc12` has an IC50 [3] of 1.57 µM, an IC50 [4] of no less than 1.5 µM and an IC50 [5] of no less than 0.8 µM.
For `CCCCCC/C=C\CCCCCCCC(=O)N1CCC[C@@H]1OP(=O)([O-])OCC[N+](C)(C)C`, the inhibition at 100 µM [6] was 22.6%, the inhibition at 100 µM [7] was 4.7% and the inhibition at 100 µM [8] was 10.1%. It also gave an inhibition at 100 µM [9] of 0.3%.
`O=C1Nc2ccccc2C12N[C@H](Cc1ccccc1)[C@@H](c1ccccc1Cl)[C@@]21CN(/C=C/c2ccccc2)C/C(=C\c2ccccc2Cl)C1=O` (some centres not stated) was tested, and the IC50 ([10]; Homo sapiens, FaDu, 48 h) was no less than 19 µM.
With `Cc1cc(=O)oc2cc(NC(=O)[C@@H]3CCCN3S(=O)(=O)c3ccccc3)ccc12` the IC50 [1] was 2.58 µM and the IC50 [2] was 18.1 µM.
`O=C(/C=C/c1c(Cl)cccc1Cl)[C@H]1[C@H](c2c(Cl)cccc2Cl)[C@H]2CSCN2[C@]12C(=O)Nc1ccccc12` showed an IC50 [3] of 1.57 µM, an IC50 [4] of no less than 1.5 µM and an IC50 [5] of no less than 0.8 µM.
`O=C1Nc2ccccc2C12N[C@H](Cc1ccccc1)[C@@H](c1ccccc1)[C@@]21CN(/C=C/c2ccccc2)C/C(=C\c2ccccc2)C1=O` (some centres not stated) gave an IC50 ([10]; Homo sapiens, FaDu, 48 h) of 19 µM.
Work on `CCCCCC/C=C\CCCCCCCC(=O)N1CC[C@@H](OP(=O)([O-])OCC[N+](C)(C)C)C1` yielded an inhibition at 100 µM [6] of 22.6%, an inhibition at 100 µM [7] of 4.7% and an inhibition at 100 µM [8] of 10.1%. For the same compound, the inhibition at 100 µM [9] was 0.3%.
`O=C(/C=C/c1cccc(Br)c1)[C@H]1[C@H](c2cccc(Br)c2)[C@H]2CSCN2[C@]12C(=O)Nc1ccccc12` showed an IC50 [3] of 1.57 µM, an IC50 [4] of no less than 1.5 µM and an IC50 [5] of no less than 0.8 µM.
With `Cc1cc(=O)oc2cc(NC(=O)CN3CCC[C@@H]3C#N)ccc12` the IC50 [1] was 4.43 µM and the IC50 [2] was 4.02 µM.
With `O=C1Nc2ccccc2C12N[C@H](Cc1ccccc1)[C@@H](c1ccccc1Br)[C@@]21CN(/C=C/c2ccccc2)C/C(=C\c2ccccc2Br)C1=O` (some centres not stated) the IC50 ([10]; Homo sapiens, FaDu, 48 h) was no less than 19 µM.
Work on `Cc1cc(=O)oc2cc(NC(=O)CN3CCCC3)ccc12` yielded an IC50 [1] of 4.8 µM and an IC50 [2] of 4.38 µM.
`O=C1Nc2ccccc2C12N[C@H](Cc1ccccc1)[C@@H](c1cccc([N+](=O)[O-])c1)[C@@]21CN(/C=C/c2ccccc2)C/C(=C\c2cccc([N+](=O)[O-])c2)C1=O` (some centres not stated) was tested, and the IC50 ([10]; Homo sapiens, FaDu, 48 h) was no less than 19 µM.
`O=C(Nc1cc2ccccc2oc1=O)[C@@H]1CCCN1S(=O)(=O)c1ccccc1` gave an IC50 [1] of 9.34 µM and an IC50 [2] of 7.39 µM.
Work on `COc1cccc(/C=C2\CN(/C=C/c3ccccc3)C[C@]3(C2=O)[C@H](c2cccc(OC)c2)[C@@H](Cc2ccccc2)NC32C(=O)Nc3ccccc32)c1` (some centres not stated) yielded an IC50 ([10]; Homo sapiens, FaDu, 48 h) of no less than 19 µM.
`CCCCCCCCCCCCCCCC(=O)N1CCC[C@@H]1OP(=O)([O-])OCC[N+](C)(C)C` gave an inhibition at 100 µM [6] of 22.6%, an inhibition at 100 µM [7] of 4.7% and an inhibition at 100 µM [8] of 10.1%. For the same compound, the inhibition at 100 µM [9] was 0.3%.
`O=C(N[C@H]1C[C@@H](C(=O)NO)N(S(=O)(=O)c2ccc(Oc3ccccc3)cc2)C1)c1cccnc1` was tested, and the IC50 [2] was 5 µM.
For `O=C1Nc2ccccc2C12N[C@H](Cc1ccccc1)[C@@H](c1ccc(Cl)cc1)[C@@]21CN(/C=C/c2ccccc2)C/C(=C\c2ccc(Cl)cc2)C1=O` (some centres not stated), the IC50 ([10]; Homo sapiens, FaDu, 48 h) was no less than 19 µM.
Work on `Cc1ccccc1/C=C1\CN(/C=C/c2ccccc2)C[C@]2(C1=O)[C@H](c1ccccc1C)[C@@H](Cc1ccccc1)NC21C(=O)Nc2ccccc21` (some centres not stated) yielded an IC50 ([10]; Homo sapiens, FaDu, 48 h) of 23.5 µM.
`CCCCCCCC/C=C\CC(=O)N1CC[C@@H](COP(=O)([O-])OCC[N+](C)(C)C)C1` gave an inhibition at 100 µM [6] of 92.9%, an inhibition at 100 µM [7] of 58.7% and an inhibition at 100 µM [8] of 72.8%. It also gave an inhibition at 100 µM [9] of 67.3%.
With `CCOC(=O)[C@H]1CCCN1CC(=O)Nc1cc2ccccc2oc1=O` the IC50 [1] was 9.27 µM and the IC50 [2] was 3.09 µM.
`O=C(N[C@H]1C[C@@H](C(=O)NO)N(S(=O)(=O)c2ccc(Oc3ccccc3)cc2)C1)c1cc(Br)cnc1Cl` gave an IC50 [2] of 5 µM.
For `O=C(/C=C/c1ccc(Br)cc1)[C@H]1[C@H](c2ccc(Br)cc2)[C@H]2CSCN2[C@]12C(=O)Nc1ccccc12`, the IC50 [3] was 3 µM, the IC50 [4] was 0.8 µM and the IC50 [5] was no less than 0.8 µM.
With `O=C(Nc1cc2ccccc2oc1=O)[C@@H]1CCCN1S(=O)(=O)c1ccc(Cl)cc1` the IC50 [1] was 4.39 µM and the IC50 [2] was 3.81 µM.
Compound `CCCCCCCCCCCCCCCC(=O)N1CCC[C@H]1OP(=O)([O-])OCC[N+](C)(C)C` has an inhibition at 100 µM [6] of 22.6%, an inhibition at 100 µM [7] of 71.6% and an inhibition at 100 µM [8] of 10.1%. The inhibition at 100 µM [9] was 0.3%.
Compound `COc1ccc(/C=C2\CN(/C=C/c3ccccc3)C[C@]3(C2=O)[C@H](c2ccc(OC)cc2)[C@@H](Cc2ccccc2)NC32C(=O)Nc3ccccc32)cc1` (some centres not stated) has an IC50 ([10]; Homo sapiens, FaDu, 48 h) of no less than 19 µM.
With BLEOMYCIN the IC50 ([10]; fadu) was 31 µM.

Source: ChEMBL document CHEMBL5360530, “Structure activity relationship (SAR) and anticancer activity of pyrrolidine derivatives: Recent developments and future prospects (A review)” (Eur J Med Chem, 2023)
